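Step 1: Grow cells in 96-well plates. Step 2: Expose to compound for 48 hours at 5 concentrations. Step 3: Interpolate endpoints linearly; if unreached, use highest concentration. Here, GI50 denotes the concentration required for 50% inhibition of growth. At the TGI there is no net growth.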
Assays:
Test in all cases: NCI anticancer screen, dose series, 48 h
LOX IMVI melanoma = test system: LOX IMVI melanoma
SK-MEL-2 melanoma = test system: SK-MEL-2 melanoma
IGROV1 ovarian = test system: IGROV1 ovarian
SK-MEL-5 melanoma = test system: SK-MEL-5 melanoma
KM12 colon = test system: KM12 colon
M14 melanoma = test system: M14 melanoma
HCT-116 colon = test system: HCT-116 colon
HCC-2998 colon = test system: HCC-2998 colon
UO-31 renal = test system: UO-31 renal
SNB-19 CNS = test system: SNB-19 CNS
SNB-75 CNS = test system: SNB-75 CNS
EKVX NSCLC = test system: EKVX NSCLC
RPMI-8226 leukemia = test system: RPMI-8226 leukemia
ACHN renal = test system: ACHN renal

SMILES | TGI (LOX IMVI melanoma) [µM] | TGI (SK-MEL-2 melanoma) [µM] | TGI (IGROV1 ovarian) [µM] | TGI (SK-MEL-5 melanoma) [µM] | TGI (KM12 colon) [µM] | TGI (M14 melanoma) [µM] | TGI (HCT-116 colon) [µM] | TGI (HCC-2998 colon) [µM] | TGI (UO-31 renal) [µM] | TGI (SNB-19 CNS) [µM] | TGI (SNB-75 CNS) [µM] | TGI (EKVX NSCLC) [µM] | TGI (RPMI-8226 leukemia) [µM] | TGI (ACHN renal) [µM] | GI50 (IGROV1 ovarian) [µM] | GI50 (SK-MEL-5 melanoma) [µM] | GI50 (M14 melanoma) [µM] | GI50 (SNB-19 CNS) [µM] | GI50 (SNB-75 CNS) [µM]
O=[N+]([O-])/C=C/c1cccc(F)c1 | > 100 | 29.9 | > 100 | 18.6 | 10.3 | 10.7 | 8.86 | 31.6 | 5.87 | 29.7 | 28.1 | 7.45 | 4.14 | 6.84 |  |  |  |  | 
CN[C@@H]1[C@H](O)[C@H](NC)[C@H]2O[C@@]3(O)C(=O)C[C@@H](C)O[C@H]3O[C@@H]2[C@H]1O | > 100 |  | > 100 | > 100 | > 100 | > 100 | > 100 | > 100 | > 100 | > 100 | > 100 | > 100 | > 100 | > 100 |  |  |  |  | 
Nc1nc(SCCC/C=C/B(O)O)nc2c1ncn2C1OC(CO)C(O)C1O (stereo not drawn) | > 243 | > 243 | > 243 | > 243 | > 243 | > 243 | > 243 | > 243 |  | > 243 | > 243 | > 243 |  | > 243 |  |  |  |  | 
C=C(/C=C/C=C(/CCC=C(C)C)COC(C)=O)[C@@H]1CC[C@]2([C@H](CCCO)/C(=C(/C)C=O)CC[C@]2(C)O)[C@@H]1O | 27.4 | 33 | 36.2 |  | 32.4 | 23.5 | 45.6 | 20.3 | 25.6 | 29.7 |  | 42.2 |  | 27.6 |  |  |  |  | 
CC1(C)[C@@H]2C[C@H]1C(Cc1ccccc1C[C@H]1c3cc(-c4ccccn4)ncc3[C@H]3C[C@@H]1C3(C)C)c1cc(-c3ccccn3)ncc12 (stereo partly drawn) | 1.48 | > 90.3 | 26.2 | 28.1 | 13.4 |  | 10.1 | 39.8 | 2.41 | > 100 | > 100 | > 100 | 3.33 | 4.83 |  |  |  |  | 
COc1cc2c(cc1OC)C(C1(O)CCCCC1)NCC2 (stereo not drawn) | > 100 | > 100 | > 100 | > 100 | > 100 | > 100 | > 100 | > 100 | > 100 |  | > 100 | > 100 | > 100 | > 100 |  |  |  |  | 
C#CCCCCC#CC1CCCC1C1=CC(=O)c2ccccc21 (stereo not drawn) | 13.9 | 24.8 | 19.4 | 20.2 | 19.6 | 17 | 2.91 | 25.2 | 21.3 | 28.8 | 17.7 | 28 | 6.46 | 19.9 |  |  |  |  | 
CN(C)CCNc1ccc2nnn3c4ccc(Cl)cc4c(=O)c1c23 | 9.66 | 16.8 | 38.7 | 10.6 | 20.8 | 16.7 | 14.6 | 23.4 | 9.41 | 26.7 | 9.78 | 22.2 | 25.4 | 12.3 |  |  |  |  | 
Cc1c(Cl)c(S(N)(=O)=O)cc(S(N)(=O)=O)c1NC(=O)c1ccc(Cl)cc1 | > 100 |  | > 100 | > 100 | > 100 | > 100 | > 100 | > 100 | > 100 | > 100 | > 100 |  | > 100 | > 100 |  |  |  |  | 
NC(=O)c1nnc2cc(F)c(F)cc2c1N | > 100 | 38.5 | > 100 | > 100 | > 100 | > 100 | > 100 | > 100 | > 100 | > 100 | 31.8 | > 100 | > 100 | > 100 |  |  |  |  | 
NC(Cc1ccc2oc3cc(=O)c4ccccc4c-3nc2c1)C(=O)O (stereo not drawn) | 44.1 | 74.3 | > 100 | 11.5 | > 100 | 30.1 | 76.8 | 40.2 | > 100 | > 97.7 | 29.7 | > 100 | > 88.3 | > 100 |  |  |  |  | 
Cc1ccccc1N=Nc1ccc(N=Nc2c(O)ccc3cc(S(=O)(=O)O)cc(S(=O)(=O)O)c23)c(C)c1 |  | > 100 | > 100 | > 100 | > 100 | > 100 | > 100 | > 100 | > 100 | > 100 | > 100 | > 100 | > 100 | > 100 |  |  |  |  | 
Cc1ccc(NCCN(C)CC(C)O)c2c(=O)c3ccc(Cl)cc3sc12 (stereo not drawn) |  |  | > 100 | 3.01 |  | 3.38 |  |  |  | > 100 | > 100 |  |  |  | 4.79 | 1.65 | 1.77 | 4.62 | 6.65
O=S(=O)(O)c1cc(O)c2c(O)c(N=Nc3ccc(/C=C/c4ccc(N=Nc5c(S(=O)(=O)O)cc6cc(S(=O)(=O)O)cc(O)c6c5O)cc4S(=O)(=O)O)c(S(=O)(=O)O)c3)c(S(=O)(=O)O)cc2c1 | > 100 | > 100 | > 100 | > 100 | > 100 | > 100 | > 100 | > 100 | > 100 | > 100 | > 100 | > 100 | > 100 | > 100 |  |  |  |  | 
C/C=C1/CN2CC[C@@H]3c4ccccc4N4[C@H](C(=O)OC)[C@H]1C[C@H]2[C@]34/C=C/C1=COC[C@@H]2[C@H]1C[C@H]1c3c(c4ccccc4n3C)C[C@@H]2N1C | 8.74 | 8.14 | 8.81 | 7.48 |  | 7.9 | 7.61 | 1.31 | 7.98 | 7.39 |  | 6.17 | 8.33 | 7.43 |  |  |  |  | 

Source: PubChem BioAssay (NCI)
